Columns and labels:
[1] = target: T1, human TRPM8 (Homo sapiens, UniProt Q7Z2W7); experiment: Menthol-induced Ca2+ influx in HEK293 cells stably expressing human TRPM8; assay type: cell-based; details: 30 microM menthol-induced Ca2+ influx, read-out: IC50 against TRPM8
T1 construct: expressed in transfected cells; host or cells: HEK293
In short: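 HEK293 cells stably expressing human TRPM8 were loaded with Fluo4-AM for 1 h at room temperature, preincubated 5 min with compound, then challenged with 30 microM menthol. Calcium rise was read by FDSS imaging. IC50 came from 11-point curves using duplicate-well means.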

[2] = target: T2, Human HERG (Homo sapiens, UniProt Q12809); experiment: Human dofetilide binding assay; details: Human HERG transfected HEK293S cell membranes
T2 construct: expressed in transfected cells; host or cells: HEK293S (membrane homogenate)
Experimental: Human Dofetilide Binding Assay
Human HERG transfected HEK293S cells are prepared and grown in-house. The collected cells are suspended in 50 mM Tris-HCl (pH 7.4 at 4° C.) and homogenized using a hand held Polytron PT 1200 disruptor set at full power for 20 sec on ice. The homogenates are centrifuged at 48,000×g at 4° C. for 20 min. The pellets are then resuspended, homogenized, and centrifuged once more in the same manner. The final pellets are resuspended in an appropriate volume of 50 mM Tris-HCl, 10 mM KCl, 1 mM MgCl2 (pH 7.4 at 4° C.), homogenized, aliquoted and stored at −80° C. until use. An aliquot of membrane fractions is used for protein concentration determination using BCA protein assay kit (PIERCE) and ARVOsx plate reader (Wallac). Binding assays are conducted in a total volume of 30 microL in 384-well plates. The activity is measured by PHERAstar (BMG LABTECH) using fluorescence polarization technology. Ten microL of test compounds are incubated with 10 microL of fluorescence ligand (6 nM Cy3B tagged dofetilide derivative) and 10 microL of membrane homogenate (6 microgram protein) for 120 minutes at room temperature. Nonspecific binding is determined by 10 microM E4031 at the final concentration.

[3] = Metabolic stability assay: half-life in human liver microsomes (HLM); assay type: in vitro ADME
Experimental: Metabolic Stability Assay:
Half-Life in Human Liver Microsomes (HLM)
Test compounds (1 microM) are incubated with 1 mM MgCl2 and 0.78 mg/mL HLM (HL101) or 0.74 mg/mL HLM (Gentest UltraPool 150) or 0.61 mg/mL HLM (XenoTech XTreme 200) in 100 mM potassium phosphate buffer (pH 7.4) at 37° C. on the 96-deep well plate. The reaction mixture is split into two groups, a non-P450 and a P450 groupon necessary. NADPH is only added to the reaction mixture of the P450 group. (NADPH generation system is also used instead of NADPH.) An aliquot of samples of P450 group is collected at 0, 10, 30, and 60 min time point, where 0 min time point indicated the time when NADPH is added into the reaction mixture of P450 group. An aliquot of samples of non-P450 group is collected at −10 and 65 min time point. Collected aliquots are extracted with acetonitrile solution containing an internal standard. The precipitated protein is spun down in centrifuge (2000 rpm, 15 min). The compound concentration in supernatant is measured by LC/MS/MS system.
The half-life value is obtained by plotting the natural logarithm of the peak area ratio of compounds/internal standard versus time. The slope of the line of best fit through the points yield the rate of metabolism (k). This is converted to a half-life value using following equations: Half-life=ln 2/k {Math. 4}

T1 sequence (Q7Z2W7 whole entry): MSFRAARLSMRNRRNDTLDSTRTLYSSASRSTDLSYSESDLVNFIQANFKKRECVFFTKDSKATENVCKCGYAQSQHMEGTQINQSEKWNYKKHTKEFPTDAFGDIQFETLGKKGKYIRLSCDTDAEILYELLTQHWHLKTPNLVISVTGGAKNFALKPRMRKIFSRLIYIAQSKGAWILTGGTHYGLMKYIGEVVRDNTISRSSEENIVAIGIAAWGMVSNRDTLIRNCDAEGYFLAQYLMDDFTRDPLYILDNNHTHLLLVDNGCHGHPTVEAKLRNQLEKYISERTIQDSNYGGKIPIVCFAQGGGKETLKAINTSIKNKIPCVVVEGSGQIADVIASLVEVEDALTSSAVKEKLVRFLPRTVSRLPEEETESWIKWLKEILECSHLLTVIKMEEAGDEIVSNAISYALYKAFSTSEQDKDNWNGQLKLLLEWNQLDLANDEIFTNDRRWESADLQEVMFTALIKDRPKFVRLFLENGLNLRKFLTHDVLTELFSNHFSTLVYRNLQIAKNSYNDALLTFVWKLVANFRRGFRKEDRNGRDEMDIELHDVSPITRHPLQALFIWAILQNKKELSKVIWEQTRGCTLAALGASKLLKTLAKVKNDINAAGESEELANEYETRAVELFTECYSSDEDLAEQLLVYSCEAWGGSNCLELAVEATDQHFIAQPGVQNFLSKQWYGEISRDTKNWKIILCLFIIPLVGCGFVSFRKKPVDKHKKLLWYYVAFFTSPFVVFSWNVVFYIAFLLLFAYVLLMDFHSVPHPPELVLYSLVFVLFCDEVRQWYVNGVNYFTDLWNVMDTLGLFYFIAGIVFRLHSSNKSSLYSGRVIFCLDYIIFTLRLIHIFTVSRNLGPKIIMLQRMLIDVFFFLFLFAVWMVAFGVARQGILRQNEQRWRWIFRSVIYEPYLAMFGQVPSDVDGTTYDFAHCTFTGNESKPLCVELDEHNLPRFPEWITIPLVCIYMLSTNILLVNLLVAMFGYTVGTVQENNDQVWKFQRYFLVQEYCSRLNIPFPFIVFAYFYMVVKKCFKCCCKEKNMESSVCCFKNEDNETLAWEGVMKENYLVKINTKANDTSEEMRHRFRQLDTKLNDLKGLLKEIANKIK
T2 sequence (Q12809 whole entry): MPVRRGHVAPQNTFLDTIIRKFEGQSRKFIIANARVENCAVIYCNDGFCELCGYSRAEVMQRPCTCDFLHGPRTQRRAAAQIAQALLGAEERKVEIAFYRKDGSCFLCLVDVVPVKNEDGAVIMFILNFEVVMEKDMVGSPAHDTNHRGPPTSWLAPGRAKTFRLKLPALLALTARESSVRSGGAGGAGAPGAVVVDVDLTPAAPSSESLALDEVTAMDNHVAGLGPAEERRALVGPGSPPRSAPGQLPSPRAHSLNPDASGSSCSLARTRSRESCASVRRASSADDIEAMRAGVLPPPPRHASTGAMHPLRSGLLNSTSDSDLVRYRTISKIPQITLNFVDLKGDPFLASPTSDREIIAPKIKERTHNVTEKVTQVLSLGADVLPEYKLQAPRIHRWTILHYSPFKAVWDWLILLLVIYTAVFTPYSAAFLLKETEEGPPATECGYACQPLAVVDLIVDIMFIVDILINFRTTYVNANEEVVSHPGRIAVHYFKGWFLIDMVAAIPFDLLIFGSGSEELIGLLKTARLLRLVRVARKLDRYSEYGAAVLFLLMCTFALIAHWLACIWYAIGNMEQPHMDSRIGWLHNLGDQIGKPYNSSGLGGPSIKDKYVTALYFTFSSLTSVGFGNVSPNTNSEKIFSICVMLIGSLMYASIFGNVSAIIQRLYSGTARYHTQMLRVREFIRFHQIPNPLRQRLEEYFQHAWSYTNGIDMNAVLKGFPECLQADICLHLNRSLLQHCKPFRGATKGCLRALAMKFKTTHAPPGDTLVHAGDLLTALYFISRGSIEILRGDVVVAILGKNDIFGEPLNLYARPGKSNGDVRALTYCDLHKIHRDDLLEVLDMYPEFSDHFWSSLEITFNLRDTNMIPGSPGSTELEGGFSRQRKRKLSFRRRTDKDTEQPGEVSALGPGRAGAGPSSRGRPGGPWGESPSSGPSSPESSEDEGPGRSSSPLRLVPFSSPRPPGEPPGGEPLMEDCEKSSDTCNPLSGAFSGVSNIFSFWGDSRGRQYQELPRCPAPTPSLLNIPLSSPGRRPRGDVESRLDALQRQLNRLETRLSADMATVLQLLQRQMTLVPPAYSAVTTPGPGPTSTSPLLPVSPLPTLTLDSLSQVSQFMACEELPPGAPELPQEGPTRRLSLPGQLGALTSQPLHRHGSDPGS

| IC50 [1] [µM] | CLint scaled at 1 microM ([3]; human, pH 7.4, read-out: intrinsic clearance (CLint)) [mL/min/kg] | half-life at 1 microM ([3]; pH 7.4, 1 microM) [min] | Structure (SMILES) | IC50 [2] [µM] | Ki [2] [µM] |
| --- | --- | --- | --- | --- | --- |
| < 0.5 | – | – | O=C(CN1C(=O)NC2(CCC(F)(F)CC2)C1=O)c1ccc(-n2c(CO)nc3cccnc32)cc1 [Example 28-4, 8,8-difluoro-3-(2-(4-(2-(hydroxymethyl)-3H-imidazo[4,5-b]pyridin-3-yl)phenyl)-2-oxoethyl)-1,3-diazaspiro[4.5]decane-2,4-dione] | – | – |
| < 0.1 | – | – | Cc1ccc2nc(CO)n(-c3ccc(C(=O)CN4C(=O)NC5(CCC(F)(F)CC5)C4=O)cc3)c2n1 [Example 28-5, 8,8-difluoro-3-(2-(4-(2-(hydroxymethyl)-5-methyl-3H-imidazo[4,5-b]pyridin-3-yl)phenyl)-2-oxoethyl)-1,3-diazaspiro[4,5]decane-2,4-dione] | – | – |
| – | > 215 | < 5 | CC(C)[C@@H]1CC[C@@H](C)C[C@]12NC(=O)C(CC(=O)c1ccccc1)C2=O (stereo partly drawn) [closest compound] | 19 | 6.5 |
